Each structure is given as a SMILES string.

The assay deals with T1, human αVβ6 (Homo sapiens, UniProt P06756+P18564).
T1 construct: purchased R & D systems 3817-AV
T1 sequence (P06756 31-992 limits assumed): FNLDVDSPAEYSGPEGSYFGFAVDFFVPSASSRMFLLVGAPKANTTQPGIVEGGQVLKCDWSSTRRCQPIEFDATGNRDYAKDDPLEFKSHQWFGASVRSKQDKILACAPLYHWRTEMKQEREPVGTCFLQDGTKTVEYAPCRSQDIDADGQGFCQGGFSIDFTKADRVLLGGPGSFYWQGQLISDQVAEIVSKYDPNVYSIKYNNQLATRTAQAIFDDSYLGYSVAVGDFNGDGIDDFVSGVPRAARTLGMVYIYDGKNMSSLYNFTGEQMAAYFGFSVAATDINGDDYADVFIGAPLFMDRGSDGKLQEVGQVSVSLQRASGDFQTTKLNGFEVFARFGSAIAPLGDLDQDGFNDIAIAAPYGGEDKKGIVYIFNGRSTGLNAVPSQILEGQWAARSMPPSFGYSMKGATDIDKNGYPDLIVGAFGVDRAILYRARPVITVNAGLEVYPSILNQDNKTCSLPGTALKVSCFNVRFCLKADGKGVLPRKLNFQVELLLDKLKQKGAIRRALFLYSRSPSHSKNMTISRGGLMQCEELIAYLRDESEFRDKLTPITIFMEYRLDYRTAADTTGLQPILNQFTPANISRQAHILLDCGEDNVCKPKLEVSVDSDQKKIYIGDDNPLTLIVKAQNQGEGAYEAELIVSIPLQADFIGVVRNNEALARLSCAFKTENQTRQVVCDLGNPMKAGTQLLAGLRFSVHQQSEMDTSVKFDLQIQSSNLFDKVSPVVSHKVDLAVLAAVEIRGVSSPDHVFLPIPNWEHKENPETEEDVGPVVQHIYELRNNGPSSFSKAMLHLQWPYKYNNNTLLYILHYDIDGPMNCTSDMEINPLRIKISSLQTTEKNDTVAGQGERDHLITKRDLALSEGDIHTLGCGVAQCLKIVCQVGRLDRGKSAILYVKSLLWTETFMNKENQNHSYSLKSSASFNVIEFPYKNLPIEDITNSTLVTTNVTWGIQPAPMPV
T1 sequence (P18564 22-707 limits assumed): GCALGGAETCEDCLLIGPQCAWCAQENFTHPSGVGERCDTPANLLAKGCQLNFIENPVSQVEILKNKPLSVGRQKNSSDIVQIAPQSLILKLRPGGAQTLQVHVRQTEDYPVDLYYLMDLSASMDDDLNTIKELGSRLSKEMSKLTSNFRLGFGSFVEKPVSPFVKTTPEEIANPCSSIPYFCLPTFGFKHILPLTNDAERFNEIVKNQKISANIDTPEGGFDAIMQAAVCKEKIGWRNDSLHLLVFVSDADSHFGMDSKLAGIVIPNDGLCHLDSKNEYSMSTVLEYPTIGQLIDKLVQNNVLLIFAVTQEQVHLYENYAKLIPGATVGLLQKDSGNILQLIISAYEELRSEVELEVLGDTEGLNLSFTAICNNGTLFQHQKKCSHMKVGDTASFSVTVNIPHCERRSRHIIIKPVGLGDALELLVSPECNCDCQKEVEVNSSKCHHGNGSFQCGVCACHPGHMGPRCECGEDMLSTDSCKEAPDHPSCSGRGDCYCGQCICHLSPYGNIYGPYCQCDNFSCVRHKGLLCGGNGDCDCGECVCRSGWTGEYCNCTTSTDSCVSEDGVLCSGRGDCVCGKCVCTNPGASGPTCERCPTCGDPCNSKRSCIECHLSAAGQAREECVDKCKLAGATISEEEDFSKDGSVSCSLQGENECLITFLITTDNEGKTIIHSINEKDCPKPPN
The assay can be described thus: human αVβ6 HTRF binding assay. The note with it: recombinant human αVβ6 integrin, FITC-conjugated fibronectin. The gist of the method:
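Biotinylated recombinant αVβ6 (1.25 nM final) incubated with FITC-fibronectin (5 nM) 1 h at RT, then streptavidin-terbium (0.625 nM) added and incubated overnight at RT in the dark before HTRF read. Buffer: 20 mM Tris pH 7.4, 1 mM MgCl2, 1 mM MnCl2, 0.01% Tween 20, 0.01% BSA.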
A word on the IC50: it is the midpoint of a concentration-inhibition curve. Turning to `COc1ncc([C@H](CC(=O)O)n2ccc(CCCc3ccc4c(n3)NCCC4)n2)cn1` [Example 82, (S)-3-(2-methoxypyrimidin-5-yl)-3-(3-(3-(5,6,7,8-tetrahydro-1,8-naphthyridin-2-yl)propyl)-1H-pyrazol-1-yl)propanoic acid], the concentration for half-maximal inhibition (IC50) came to 8.5 nM.

`COc1ccc(C(CC(=O)O)c2nc(CCCCc3ccc4c(n3)NCCC4)cn2C)cc1F` (single isomer, unassigned) [Example 168, 3-(3-fluoro-4-methoxyphenyl)-3-(1-methyl-4-(4-(5,6,7,8-tetrahydro-1,8-naphthyridin-2-yl)butyl)-1H-imidazol-2-yl)propanoic acid]: the IC50 is 91 nM.

As to `COc1ccc(C(CC(=O)O)c2nc(CCCCc3ccc4c(n3)NCCC4)c(C)o2)cc1F` (single isomer, unassigned) [Example 180, 3-(3-fluoro-4-methoxyphenyl)-3-(5-methyl-4-(4-(5,6,7,8-tetrahydro-1,8-naphthyridin-2-yl)butyl)oxazol-2-yl)propanoic acid], the IC50 was 250 nM.

Regarding `CN(C)C(=O)c1cccc(C(CC(=O)O)c2nc(CCCCc3ccc4c(n3)NCCC4)cs2)c1` (single isomer, unassigned) [Example 118, 3-(3-(dimethylcarbamoyl)phenyl)-3-(4-(4-(5,6,7,8-tetrahydro-1,8-naphthyridin-2-yl)butyl)thiazol-2-yl)propanoic acid], the half-maximal inhibitory concentration (IC50) turned out to be 1.9 nM.

On to `CN(C)C(=O)c1ccc(C(CC(=O)O)c2nc(CCCCc3ccc4c(n3)NCCC4)cs2)cc1` (single isomer, unassigned) [Example 128, 3-(4-(dimethylcarbamoyl)phenyl)-3-(4-(4-(5,6,7,8-tetrahydro-1,8-naphthyridin-2-yl)butyl)thiazol-2-yl)propanoic acid], for which the IC50 was found to be 4.3 nM.

Turning to `COc1ccc(C(CC(=O)O)c2nc(CCCCc3ccc4c(n3)NCCC4)cn2C)cc1F` (single isomer, unassigned) [Example 169, 3-(3-fluoro-4-methoxyphenyl)-3-(1-methyl-4-(4-(5,6,7,8-tetrahydro-1,8-naphthyridin-2-yl)butyl)-1H-imidazol-2-yl)propanoic acid], the IC50 was determined as 67 nM.

Take `COc1ccc(C(CC(=O)O)c2nc(CCCc3ccc4c(n3)NCCC4)co2)cc1F` (single isomer, unassigned) [Example 179, 3-(3-fluoro-4-methoxyphenyl)-3-(4-(3-(5,6,7,8-tetrahydro-1,8-naphthyridin-2-yl)propyl)oxazol-2-yl)propanoic acid]: the IC50 worked out at 66 nM.

In the case of `COc1ccc([C@@H](CC(=O)O)c2cnn(CCCc3ccc4c(n3)NCCC4)c2)cn1` [Example 9, (R)-3-(6-Methoxypyridin-3-yl)-3-(1-(3-(5,6,7,8-tetrahydro-1,8-naphthyridin-2-yl)propyl)-1H-pyrazol-4-yl)propanoic acid], the IC50 turned out to be 213 nM.

`Cc1cncc(C(CC(=O)O)n2ccc(CCCc3ccc4c(n3)NCCC4)n2)c1` (single isomer, unassigned) [Example 69, 3-(5-methylpyridin-3-yl)-3-{3-[3-(5,6,7,8-tetrahydro-1,8-naphthyridin-2-yl)propyl]-1H-pyrazol-1-yl}propanoic acid]: the IC50 worked out at 15 nM.

For `COc1ccc(C(CC(=O)O)c2nc(CCCc3ccc4c(n3)NCCC4)cs2)cn1` (single isomer, unassigned) [Example 16, 3-(6-Methoxypyridin-3-yl)-3-(4-(3-(5,6,7,8-tetrahydro-1,8-naphthyridin-2-yl)propyl)thiazol-2-yl)propanoic acid], the IC50 stood at 36 nM.

Take `COc1cnc(C(CC(=O)O)n2ccc(CCCc3ccc4c(n3)NCCC4)n2)cn1` (racemic) [Example 59, (±)-3-(5-Methoxypyrazin-2-yl)-3-(3-(3-(5,6,7,8-tetrahydro-1,8-naphthyridin-2-yl)propyl)-1H-pyrazol-1-yl)propanoic acid]: the IC50 turned out to be 110 nM.

For `COc1ccc(C(CC(=O)O)n2cc(CCCc3ccc4c(n3)NCCC4)cn2)cn1` (racemic) [Example 62, (±)-3-(6-Methoxypyridin-3-yl)-3-(4-(3-(5,6,7,8-tetrahydro-1,8-naphthyridin-2-yl)propyl)-1H-pyrazol-1-yl)propanoic acid], the IC50 came out at 170 nM.

`COc1ccc(C(CC(=O)O)c2ncc(CCCCc3ccc4c(n3)NCCC4)n2C)cc1F` (single isomer, unassigned) [Example 166, 3-(3-fluoro-4-methoxyphenyl)-3-(1-methyl-5-(4-(5,6,7,8-tetrahydro-1,8-naphthyridin-2-yl)butyl)-1H-imidazol-2-yl)propanoic acid]: the IC50 amounted to 280 nM.

Take `COc1ncc(C(CC(=O)O)n2nccc2CCC[C@H]2CCc3cccnc3N2)cn1` (mixture of isomers) [Example 92, 3-(2-methoxypyrimidin-5-yl)-3-(5-(3-((S)-1,2,3,4-tetrahydro-1,8-naphthyridin-2-yl)propyl)-1H-pyrazol-1-yl)propanoic acid]: the IC50 was 6700 nM.

`Cc1ncc(C(CC(=O)O)n2ccc(CCCc3ccc4c(n3)NCCC4)n2)cn1` (racemic) [Example 22, (±)-3-(2-Methylpyrimidin-5-yl)-3-(3-(3-(5,6,7,8-tetrahydro-1,8-naphthyridin-2-yl)propyl)-1H-pyrazol-1-yl)propanoic acid]: the half-maximal inhibitory concentration (IC50) was 64 nM.

Take `CN(C)C(=O)c1ccc(C(CC(=O)O)c2nc(CCCc3ccc4c(n3)NCCC4)cs2)cc1F` (single isomer, unassigned) [Example 135, 3-(4-(dimethylcarbamoyl)-3-fluorophenyl)-3-(4-(3-(5,6,7,8-tetrahydro-1,8-naphthyridin-2-yl)propyl)thiazol-2-yl)propanoic acid]: the IC50 is 4.9 nM.

Take `COc1ncc(C(CC(=O)O)c2nc(CCCCc3ccc4c(n3)NCCC4)cs2)cn1` (single isomer, unassigned) [Example 144, 3-(2-Methoxypyrimidin-5-yl)-3-(4-(4-(5,6,7,8-tetrahydro-1,8-naphthyridin-2-yl)butyl)thiazol-2-yl)propanoic acid]: the IC50 amounted to 7 nM.

`Cc1cncc(C(CC(=O)O)c2nc(CCCc3ccc4c(n3)NCCC4)cs2)c1` (single isomer, unassigned) [Example 150, 3-(5-methylpyridin-3-yl)-3-(4-(3-(5,6,7,8-tetrahydro-1,8-naphthyridin-2-yl)propyl)thiazol-2-yl)propanoic acid]: the IC50 stood at 87 nM.

Consider `COc1ccc(C(CC(=O)O)c2nc(CCCC3CCc4cccnc4N3)cs2)cc1F` (single isomer, unassigned) [Example 158, 3-(3-fluoro-4-methoxyphenyl)-3-(4-(3-(1,2,3,4-tetrahydro-1,8-naphthyridin-2-yl)propyl)thiazol-2-yl)propanoic acid], for which the IC50 was determined as 7 nM.

On to `COc1ncc([C@H](CC(=O)O)n2ccc(CCC[C@@H]3CCc4cccnc4N3)n2)cn1` [Example 90, (S)-3-(2-methoxypyrimidin-5-yl)-3-(3-(3-((R)-1,2,3,4-tetrahydro-1,8-naphthyridin-2-yl)propyl)-1H-pyrazol-1-yl)propanoic acid], for which the IC50 amounted to 220 nM.

Regarding `COc1ccc(C(CC(=O)O)n2nccc2CCCc2ccc3c(n2)NCCC3)cc1F` (racemic) [Example 71, (±)-3-(3-fluoro-4-methoxyphenyl)-3-{5-[3-(5,6,7,8-tetrahydro-1,8-naphthyridin-2-yl)propyl]-1H-pyrazol-1-yl}propanoic acid], the IC50 is 15 nM.

Consider `Cc1ncc(C(CC(=O)O)n2nccc2CCC[C@H]2CCc3cccnc3N2)cn1` (stereo partly drawn) [Example 87, 3-(2-methylpyrimidin-5-yl)-3-(5-(3-((S)-1,2,3,4-tetrahydro-1,8-naphthyridin-2-yl)propyl)-1H-pyrazol-1-yl)propanoic acid], for which the IC50 amounted to 1380 nM.

As to `COc1ncc(C(CC(=O)O)n2ccc(CCCc3ccc4c(n3)NCCCC4)n2)cn1` (single isomer, unassigned) [Example 104, 3-(2-methoxypyrimidin-5-yl)-3-(3-(3-(6,7,8,9-tetrahydro-5H-pyrido[2,3-b]azepin-2-yl)propyl)-1H-pyrazol-1-yl)propanoic acid], the IC50 came to 10 nM.

In the case of `COc1ccc(C(CC(=O)O)c2nc(CCCCc3ccc4c(n3)NCCC4)cs2)cn1` (single isomer, unassigned) [Example 13, 3-(6-Methoxypyridin-3-yl)-3-(4-(4-(5,6,7,8-tetrahydro-1,8-naphthyridin-2-yl)butyl)thiazol-2-yl)propanoic acid], the IC50 worked out at 77 nM.

Turning to `COc1cnc(C(CC(=O)O)n2nccc2CCCc2ccc3c(n2)NCCC3)cn1` (racemic) [Example 60, (±)-3-(5-Methoxypyrazin-2-yl)-3-(5-(3-(5,6,7,8-tetrahydro-1,8-naphthyridin-2-yl)propyl)-1H-pyrazol-1-yl)propanoic acid], the IC50 was 500 nM.

`COc1ncc(C(CC(=O)O)c2nc(CCCCc3ccc4c(n3)NCCC4)cs2)cn1` (single isomer, unassigned) [Example 143, 3-(2-Methoxypyrimidin-5-yl)-3-(4-(4-(5,6,7,8-tetrahydro-1,8-naphthyridin-2-yl)butyl)thiazol-2-yl)propanoic acid]: the IC50 turned out to be 88 nM.

Take `O=C(O)CC(c1cncc(N2CCCC2)c1)n1ccc(CCCc2ccc3c(n2)NCCC3)n1` (racemic) [Example 66, (±)-3-[5-(pyrrolidin-1-yl)pyridin-3-yl]-3-{3-[3-(5,6,7,8-tetrahydro-1,8-naphthyridin-2-yl)propyl]-1H-pyrazol-1-yl}propanoic acid]: the IC50 is 21 nM.

With `COc1ccc(C(CC(=O)O)n2ccc(CCCc3ccc4c(n3)NCCC4)n2)cc1F` (racemic) [Example 49, (±)-3-(3-Fluoro-4-methoxyphenyl)-3-(3-(3-(5,6,7,8-tetrahydro-1,8-naphthyridin-2-yl)propyl)-1H-pyrazol-1-yl)propanoic acid], the IC50 amounted to 24 nM.

For the molecule `COc1ncc(C(CC(=O)O)c2nc(CCCc3ccc4c(n3)NCCC4)cs2)cn1` (centres unmarked) [Example 145, 3-(2-methoxypyrimidin-5-yl)-3-(4-(3-(5,6,7,8-tetrahydro-1,8-naphthyridin-2-yl)propyl)thiazol-2-yl)propanoic acid], the IC50 came to 4.5 nM.
